From patent US20040152191A1 (priority 2001, published 2004)

Tests used:
[1] = tested on: dendritic cells derived from human monocytes; assay: Effect of LCOS 1013 on maturation of dendritic cells derived from human monocytes, phenotype by flow cytometry (Examples 11, 12); assay type: cell-based
Text: The purified monocytes (more than 90%) were placed in culture in RPMI medium containing 10% AB human serum in the presence of growth factors GM-CSF (200 U/ml) and IL-4 (500 U/ml) for 6 days in order to induce the differentiation of the monocytes into immature dendritic cells.
The phenotype of the cells thus generated (after 8 days of culture) was examined by flow cytometry. The expression of the marker specific for maturation of the dendritic cells (CD83), of the co-stimulatory molecules CD80, CD86, CD40, of the adhesion molecule CD54, of the class II HLA-DR molecule of the major histocompatibility complex was analyzed. The expression of the CD1a molecule, specific marker of the Langerhans cells, immature dendritic cells, was also tested.

[2] = tested on: CD34+ cells of human cord blood; assay: Production of dendritic cells from CD34+ cells of human cord blood, cell markers (Example 3); assay type: cell-based; details: TNF-α 200 IU/ml or RU 41740 10 μg/ml until D6
Text: The experimental conditions are similar to Example 2, except the fact that the cells are derived from cord blood:
Purification: After Ficoll, the CD34+ cells represent 0.83% of the mononucleated cells (MNC).
After purification by positive selection, 18.1% of CD34+ are obtained.
Duplication: on D6, D7,D8, D10 and D12.

[3] = Donor 1, TNF-α 200 U/ml or LCOS 1013 25 μg/ml for 48 hours
[4] = Donor 2, TNF-α 200 U/ml or LCOS 1013 25 μg/ml for 48 hours
[5] = Donor 3, TNF-α 200 U/ml or LCOS 1013 25 μg/ml for 48 hours
[6] = Example 12, single donor, TNF-α 200 U/ml

TNF-α
CD1a, MFI [1, 3]: 28 | CD1a, percentage of expression [1, 3]: 13.2% | CD40, MFI [1, 3]: (1084) | CD40, percentage of expression [1, 3]: 99.4% | CD54, MFI [1, 3]: (195) | CD54, percentage of expression [1, 3]: 98.4% | CD80, MFI [1, 3]: (85) | CD80, percentage of expression [1, 3]: 69.7% | CD83, MFI [1, 3]: (132) | CD83, percentage of expression [1, 3]: 91% | CD86, MFI [1, 3]: (209) | CD86, percentage of expression [1, 3]: 99.5% | HLA-DR, MFI [1, 3]: (803) | HLA-DR, percentage of expression [1, 3]: 99.5% | CD1a, MFI [1, 4]: 215 | CD1a, percentage of expression [1, 4]: 20.6% | CD40, MFI [1, 4]: (1104) | CD40, percentage of expression [1, 4]: 99.2% | CD54, MFI [1, 4]: (355) | CD54, percentage of expression [1, 4]: 97.8% | CD80, MFI [1, 4]: (89) | CD80, percentage of expression [1, 4]: 55.1% | CD83, MFI [1, 4]: (221) | CD83, percentage of expression [1, 4]: 88% | CD86, MFI [1, 4]: (299) | CD86, percentage of expression [1, 4]: 99.1% | HLA-DR, MFI [1, 4]: (1108) | HLA-DR, percentage of expression [1, 4]: 98.6% | CD1a, expression [1, 5]: Neg. | CD40, MFI [1, 5]: (918) | CD40, percentage of expression [1, 5]: 98.7% | CD54, MFI [1, 5]: (154) | CD54, percentage of expression [1, 5]: 95.9% | CD80, MFI [1, 5]: (65) | CD80, percentage of expression [1, 5]: 48.7% | CD83, MFI [1, 5]: (108) | CD83, percentage of expression [1, 5]: 91.8% | CD86, MFI [1, 5]: (209) | CD86, percentage of expression [1, 5]: 98.5% | HLA-DR, MFI [1, 5]: (768) | HLA-DR, percentage of expression [1, 5]: 98.9% | CD40, percentage of expression [1, 6]: 83.44% | CD40, second line of cell (MFI) [1, 6]: 289.54 | CD54, percentage of expression [1, 6]: 87.12% | CD54, second line of cell (MFI) [1, 6]: 137.49 | CD80, percentage of expression [1, 6]: 0.49% | CD80, second line of cell (MFI) [1, 6]: 95.04 | CD83, percentage of expression [1, 6]: 70.02% | CD83, second line of cell (MFI) [1, 6]: 65.55 | CD86, percentage of expression [1, 6]: 94.44% | CD86, second line of cell (MFI) [1, 6]: 180.81 | HLA-DR, percentage of expression [1, 6]: 92.12% | HLA-DR, second line of cell (MFI) [1, 6]: 877.54 | CD1a, percentage of labelled cells ([2]; D7): 4.41% | CD14, percentage of labelled cells ([2]; D7): 32% | CD16, percentage of labelled cells ([2]; D7): 2.24% | CD34, percentage of labelled cells ([2]; D7): 19.79% | CD45, percentage of labelled cells ([2]; D7): 99.84% | CD83, percentage of labelled cells ([2]; D7): 1.09% | CD86, percentage of labelled cells ([2]; D7): 11.61% | CD1a, percentage of labelled cells ([2]; D9): 23.75% | CD14, percentage of labelled cells ([2]; D9): 59.6% | CD16, percentage of labelled cells ([2]; D9): 2.16% | CD34, percentage of labelled cells ([2]; D9): 2.53% | CD45, percentage of labelled cells ([2]; D9): 99.96% | CD83, percentage of labelled cells ([2]; D9): 4.24% | CD86, percentage of labelled cells ([2]; D9): 22.23% | CD1a, percentage of labelled cells ([2]; D10): 20.63% | CD14, percentage of labelled cells ([2]; D10): 60% | CD16, percentage of labelled cells ([2]; D10): 2.11% | CD34, percentage of labelled cells ([2]; D10): 2.26% | CD45, percentage of labelled cells ([2]; D10): 99.97% | CD83, percentage of labelled cells ([2]; D10): 2.46% | CD86, percentage of labelled cells ([2]; D10): 9.23% | CD1a, percentage of labelled cells ([2]; D12): 27.9% | CD14, percentage of labelled cells ([2]; D12): 66.77% | CD34, percentage of labelled cells ([2]; D12): 0.69% | CD40, percentage of labelled cells ([2]; D12): 75.91% | CD45, percentage of labelled cells ([2]; D12): 99.85% | CD54, percentage of labelled cells ([2]; D12): 74.66% | CD83, percentage of labelled cells ([2]; D12): 0.71% | CD86, percentage of labelled cells ([2]; D12): 13.94% | HLA-DR, percentage of labelled cells ([2]; D12): 81.34% | CD1a, percentage of labelled cells ([2]; D13): 36.13% | CD14, percentage of labelled cells ([2]; D13): 57.73% | CD34, percentage of labelled cells ([2]; D13): 0.45% | CD40, percentage of labelled cells ([2]; D13): 63.35% | CD45, percentage of labelled cells ([2]; D13): 99.69% | CD54, percentage of labelled cells ([2]; D13): 61.7% | CD83, percentage of labelled cells ([2]; D13): 3.19% | CD86, percentage of labelled cells ([2]; D13): 12.78% | HLA-DR, percentage of labelled cells ([2]; D13): 73.04% | CD1a, percentage of labelled cells ([2]; D14): 34.2% | CD14, percentage of labelled cells ([2]; D14): 46.77% | CD34, percentage of labelled cells ([2]; D14): 0.38% | CD40, percentage of labelled cells ([2]; D14): 64.56% | CD45, percentage of labelled cells ([2]; D14): 99.93% | CD54, percentage of labelled cells ([2]; D14): 64.4% | CD83, percentage of labelled cells ([2]; D14): 1.22% | CD86, percentage of labelled cells ([2]; D14): 19.33% | HLA-DR, percentage of labelled cells ([2]; D14): 57.84%
